Values after ≈ are worked out from the molar mass of the structure shown. Read-outs that look alike come from different tables or passages of the source. Peptide text beside a SMILES is read from it.
How the values were obtained:
C. parapsilosis = assay: Antifungal MIC, CLSI M27/M38, half-strength potato dextrose broth; assay type: cell-based, Candida parapsilosis; conditions: C. parapsilosis ATCC 22019; 24-72 hours
Experimental: (§1) Testing for antifungal activity used half-strength potato dextrose broth for peptides and RPMI for comparator antifungals fluconazole and voriconazole. CLSI M27 and M38 methodologies used for to measure MICs. Minimal Inhibitory Concentration (MIC) is the concentration of the compound, protein, or peptide at which there is no significant growth of the microorganism relative to the growth of the microorganism in growth medium lacking the compound, protein, or peptide.
(§2) […] The concentration range for peptides in potato dextrose broth was 0.06-2 mcg/ml, the concentration range for fluconazole was 0.125-64 mcg/ml, and the concentration range for voriconazole was 0.03-16 mcg/ml. MICs were determined at 24-72 hours.

Aspergillus fumigatus = assay: as above; assay type: cell-based
Experimental: as §1, §2

C. krusei = assay: as above; assay type: cell-based; conditions: C. krusei ATCC 6258; 24-72 hours
Experimental: as §1, §2

Candida albicans = assay: as above; assay type: cell-based
Experimental: as §1, §2

Candida auris = assay: as above; assay type: cell-based
Experimental: as §1, §2

Fusarium (F. oxysporum) = assay: as above; assay type: cell-based
Experimental: as §1, §2

Fusarium (F. solani) = assay: as above; assay type: cell-based; conditions: Fusarium F4 (F. solani)
Experimental: as §1, §2

P. variotii = assay: as above; assay type: cell-based; conditions: P. variotii MYA-363; 24-72 hours
Experimental: as §1, §2

Coccidioides sp. = assay type: cell-based

Structure (SMILES) | MIC (μM) Botrytis cinerea (Botrytis cinerea) [µM] | MIC 100% (C. parapsilosis) [mg/L] | MIC 100% (Aspergillus fumigatus; Aspergillus fumigatus AF293) [mg/L] | MIC 100% (Aspergillus fumigatus; Aspergillus fumigatus DI15-106) [mg/L] | MIC 100% (Aspergillus fumigatus; Aspergillus fumigatus DI15-116) [mg/L] | MIC 100% (C. krusei) [mg/L] | MIC 100% (Candida albicans; Candida albicans ATCC 90028) [mg/L] | MIC 100% (Candida albicans; Candida albicans CA3) [mg/L] | MIC 100% (Candida albicans; Candida albicans SC5314) [mg/L] | MIC 100% (Candida auris; Candida auris DI17-46) [mg/L] | MIC 100% (Candida auris; Candida auris DI17-47) [mg/L] | MIC 100% (Candida auris; Candida auris DI17-48) [mg/L] | MIC 100% (Fusarium (F. oxysporum); Fusarium F1 (F. oxysporum)) [mg/L] | MIC 100% (Fusarium (F. oxysporum); Fusarium F2 (F. oxysporum)) [mg/L] | MIC 100% (Fusarium (F. solani)) [mg/L] | MIC 100% (P. variotii) [mg/L] | MIC 100% (Coccidioides sp.; Coccidioides sp. Cocci1) [mg/L] | MIC 100% (Coccidioides sp.; Coccidioides sp. Cocci2) [mg/L] | MIC 100% (Coccidioides sp.; Coccidioides sp. DI17-143) [mg/L] | MIC Values (μM) against B. cinerea (Botrytis cinerea) [µM] | other results
C[C@@H](O)[C@H](NC(=O)[C@H](CS)NC(=O)[C@H](Cc1ccccc1)NC(=O)[C@H](CS)NC(=O)[C@H](CCCNC(=N)N)NC(=O)[C@H](CCCNC(=N)N)NC(=O)[C@H](CCCNC(=N)N)NC(=O)[C@H](Cc1ccccc1)NC(=O)CNC(=O)[C@H](CCCNC(=N)N)NC(=O)[C@H](CS)NC(=O)[C@H](CCCNC(=N)N)NC(=O)CN)C(=O)N[C@H](C(=O)N[C@@H](Cc1c[nH]cn1)C(=O)N[C@@H](CS)C(=O)O)[C@@H](C)O [GMA4AC, reference compound] (H-GRCRGFRRRCFCTTHC-OH; N-terminus assumed) | 6 (≈ 11.8 µg/mL) |  |  |  |  |  |  |  |  |  |  |  |  |  |  |  |  |  |  |  | MIC (μM) Fusarium graminearum (Fusarium graminearum): 6 µM (≈ 11.8 µg/mL)
CC[C@H](C)[C@H](NC(=O)[C@H](CCCNC(=N)N)NC(=O)[C@@H](NC(=O)[C@H](CS)NC(=O)[C@H](Cc1ccccc1)NC(=O)[C@H](CS)NC(=O)[C@H](CCCNC(=N)N)NC(=O)[C@H](CCCNC(=N)N)NC(=O)[C@H](CCCNC(=N)N)NC(=O)[C@H](Cc1ccccc1)NC(=O)CNC(=O)[C@H](CCCNC(=N)N)NC(=O)[C@H](CS)NC(=O)[C@H](CCCNC(=N)N)NC(=O)CNC(=O)CN)[C@@H](C)O)C(=O)N[C@@H](CS)C(N)=O [GMA4C_V2A] (H-GGRCRGFRRRCFCTRIC-NH2; N-terminus assumed) | 6 (≈ 12.3 µg/mL) | 8 (≈ 3.91 µM) | 32 (≈ 15.6 µM) | >32 | >32 | 16 (≈ 7.82 µM) | 16 (≈ 7.82 µM) | 16 (≈ 7.82 µM) | 16 (≈ 7.82 µM) | 16 (≈ 7.82 µM) | 16 (≈ 7.82 µM) | 16 (≈ 7.82 µM) | 8 (≈ 3.91 µM) | 16 (≈ 7.82 µM) | 8 (≈ 3.91 µM) | 8 (≈ 3.91 µM) | 8 (≈ 3.91 µM) | 16 (≈ 7.82 µM) | 16 (≈ 7.82 µM) | 3 (≈ 6.14 µg/mL) | B. cinerea MIC (Botrytis cinerea): 3 µM; SFM + 2 mM CaCl2 MIC (Botrytis cinerea): >6 µM; SFM + 100 mM KCl MIC (Botrytis cinerea): 6 µM; SFM + 100 mM NaCl MIC (Botrytis cinerea): 3 µM; SFM MIC (Botrytis cinerea): 6 µM
N=C(N)NCCC[C@H](NC(=O)CNC(=O)[C@@H](N)Cc1ccccc1)C(=O)N[C@@H](CS)C(=O)N[C@@H](CCCNC(=N)N)C(=O)NCC(=O)N[C@@H](Cc1ccccc1)C(=O)N[C@@H](CCCNC(=N)N)C(=O)N[C@@H](CCCNC(=N)N)C(=O)N[C@@H](CCCNC(=N)N)C(=O)N[C@@H](CS)C(=O)N[C@@H](Cc1ccccc1)C(=O)N[C@@H](CS)C(=O)N[C@@H](Cc1c[nH]c2ccccc12)C(=O)N[C@@H](CCCNC(=N)N)C(=O)N[C@@H](Cc1c[nH]c2ccccc12)C(=O)N[C@@H](CS)C(N)=O [GMA4C_V4A] (H-FGRCRGFRRRCFCWRWC-NH2; N-terminus assumed) | 1.5 (≈ 3.44 µg/mL) | 8 (≈ 3.49 µM) | 16 (≈ 6.97 µM) | 16 (≈ 6.97 µM) | 32 (≈ 13.9 µM) | 8 (≈ 3.49 µM) | 8 (≈ 3.49 µM) | 8 (≈ 3.49 µM) | 8 (≈ 3.49 µM) | 8 (≈ 3.49 µM) | 8 (≈ 3.49 µM) | 8 (≈ 3.49 µM) | 8 (≈ 3.49 µM) | 8 (≈ 3.49 µM) | 8 (≈ 3.49 µM) | 8 (≈ 3.49 µM) | 4 (≈ 1.74 µM) | 16 (≈ 6.97 µM) | 16 (≈ 6.97 µM) | 1.5 (≈ 3.44 µg/mL) | Fungal growth inhibition in presence of 2 mM CaCl2 (Botrytis cinerea): inhibit fungal growth; Potency relative to GMA4C_AC in presence of cations (Botrytis cinerea): 2 fold; SFM + 2 mM CaCl2 MIC (Botrytis cinerea): 3 to 6 µM; SFM + 100 mM KCl MIC (Botrytis cinerea): 1.5 µM; SFM + 100 mM NaCl MIC (Botrytis cinerea): 1.5 µM; SFM MIC (Botrytis cinerea): 1.5 to 3 µM

— patent publication US20220408731A1, “MODIFIED ANTIMICROBIAL PEPTIDES” (priority 2021, published 2022)
